pIC50: −log10 of the molar value.
Each compound was assayed against T1, human DGAT1 enzyme (Homo sapiens, UniProt O75907) (assay: in vitro DGAT1 inhibition assay (microsomes, [14C]-palmitoyl-CoA, SPA beads)).
T1 sequence (O75907 1-488): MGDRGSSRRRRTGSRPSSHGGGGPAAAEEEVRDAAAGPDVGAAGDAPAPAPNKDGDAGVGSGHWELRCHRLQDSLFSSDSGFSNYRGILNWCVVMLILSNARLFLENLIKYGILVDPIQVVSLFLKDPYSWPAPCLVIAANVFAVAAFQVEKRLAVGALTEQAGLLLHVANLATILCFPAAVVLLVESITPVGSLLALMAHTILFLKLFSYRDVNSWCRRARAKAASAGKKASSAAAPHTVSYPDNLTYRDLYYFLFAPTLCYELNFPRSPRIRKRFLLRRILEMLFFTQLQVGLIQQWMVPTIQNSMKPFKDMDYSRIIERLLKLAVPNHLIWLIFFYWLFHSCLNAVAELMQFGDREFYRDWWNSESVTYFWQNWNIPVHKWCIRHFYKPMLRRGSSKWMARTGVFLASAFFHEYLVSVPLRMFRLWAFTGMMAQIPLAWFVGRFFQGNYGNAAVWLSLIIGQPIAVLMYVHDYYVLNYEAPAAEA
Experimental: The in vitro assay to identify DGAT1 inhibitors uses human DGAT1 enzyme expressed in Sf9 insect cells prepared as microsomes. The reaction is initiated by the addition of the combined substrates 1,2-dioleoyl-sn-glycerol and [^14C]-palmitoyl-Co A and incubated with test compounds and microsomal membranes for 2 hours at room temperature. The assay is stopped by adding 0.5 mg wheat germ agglutinin beads in assay buffer with 1% Brij-35 and 1% 3-cholamidopropyldimethyl-ammonio-1-propane sulfonate. Plates are sealed with TopSeal and incubated for 18 hours to allow the radioactive triglyceride product to come into proximity with the bead. Plates are read on a TopCount instrument.
Percent inhibition was calculated as the percent of (test compound inhibition minus non-specific binding) relative to (total binding minus non-specific binding). IC50 values were determined by curve fitting the data to a Sigmoidal dose-response in GraphPad Prism utilizing the following equation: Y=A+(B−A)/(1+10^((Log IC50−X))), where A and B are the bottom and top of the curve (highest and lowest inhibition), respectively, and X is the logarithm of concentration.

Row | pIC50 | Compound
1 | 7.00 to 7.96 | CC1CCCN(c2nc(C(F)(F)F)c(C(=O)Nc3ccc(N4CCN(C(=O)[C@H](O)c5ccccc5)CC4)nc3)o2)C1 (stereo partly drawn) [Compound 198, N-(6-(4-((R)-2-hydroxy-2-phenylacetyl)piperazin-1-yl)pyridin-3-yl)-2-(3-methylpiperidin-1-yl)-4-(trifluoromethyl)oxazole-5-carboxamide]
2 | 7.00 to 7.96 | O=C(Nc1ccc(N2CCN(C(=O)[C@H](O)c3ccccc3)CC2)nc1)c1oc(N2CCC(c3ccccc3)CC2)nc1C(F)(F)F [Compound 200, (R)—N-(6-(4-(2-hydroxy-2-phenylacetyl)piperazin-1-yl)pyridin-3-yl)-2-(4-phenylpiperidin-1-yl)-4-(trifluoromethyl)oxazole-5-carboxamide]
3 | 7.00 to 7.96 | O=C(Nc1ccc(N2CCCN(C(=O)C(O)c3cc(F)cc(F)c3)CC2)nc1)c1oc(N2CCC(c3ccccc3)CC2)nc1C(F)(F)F (stereo not shown) [Compound 202, N-(6-(4-(2-(3,5-difluorophenyl)-2-hydroxyacetyl)-1,4-diazepan-1-yl)pyridin-3-yl)-2-(4-phenylpiperidin-1-yl)-4-(trifluoromethyl)oxazole-5-carboxamide]
4 | 7.00 to 7.96 | O=C(Nc1ccc(N2CCN(C(=O)[C@H](O)c3ccccc3)CC2)nc1)c1oc(N2CCC(c3cccc(Cl)c3)C2)nc1C(F)(F)F (stereo partly drawn) [Compound 207, 2-(3-(3-chlorophenyl)pyrrolidin-1-yl)-N-(6-(4-((R)-2-hydroxy-2-phenylacetyl)piperazin-1-yl)pyridin-3-yl)-4-(trifluoromethyl)oxazole-5-carboxamide]
5 | 7.00 to 7.96 | O=C(Nc1ccc(N2CCN(C(=O)C(O)C(F)(F)F)CC2)nc1)c1oc(N2CCC(c3cccc(Cl)c3)C2)nc1C(F)(F)F (stereo not shown) [Compound 212, 2-(3-(3-chlorophenyl)pyrrolidin-1-yl)-N-(6-(4-(3,3,3-trifluoro-2-hydroxypropanoyl)piperazin-1-yl)pyridin-3-yl)-4-(trifluoromethyl)oxazole-5-carboxamide]
6 | 7.00 to 7.96 | O=C(Nc1ccc(N2CCN(C(=O)[C@H](O)C3CCCCC3)CC2)nc1)c1oc(N2CCC(c3cccc(Cl)c3)C2)nc1C(F)(F)F (stereo partly drawn) [Compound 213, N-(6-(4-((R)-2-cyclohexyl-2-hydroxyacetyl)piperazin-1-yl)pyridin-3-yl)-2-(3-(3-chlorophenyl)pyrrolidin-1-yl)-4-(trifluoromethyl)oxazole-5-carboxamide]
7 | 7.00 to 7.96 | Cc1cccc(Cl)c1NC(=O)N1CCCN(c2ccc(NC(=O)c3oc(N4CCCC(C)C4)nc3C(F)(F)F)cn2)CC1 (stereo not shown) [Compound 215, N-(2-chloro-6-methylphenyl)hexahydro-4-[5-[[[2-(3-methyl-1-piperidinyl)-4-(trifluoromethyl)-5-oxazolyl]carbonyl]amino]-2-pyridinyl]-1H-1,4-diazepine-1-carboxamide]

Second part, the compound before the results:

Row | Compound | pIC50
8 | CC1CCCN(c2nc(C(F)(F)F)c(C(=O)Nc3ccc(N4CCN(c5ccccc5F)CC4)nc3)o2)C1 (stereo not shown) [Compound 164, N-(6-(4-(2-fluorophenyl)piperazin-1-yl)pyridin-3-yl)-2-(3-methylpiperidin-1-yl)-4-(trifluoromethyl)oxazole-5-carboxamide] | 7.00 to 7.96
9 | CC1CCCN(c2nc(C(F)(F)F)c(C(=O)Nc3ccc(N4CCc5c(cccc5C(=O)O)C4)nc3)o2)C1 (stereo not shown) [Compound 168, 2-(5-(2-(3-methylpiperidin-1-yl)-4-(trifluoromethyl)oxazole-5-carboxamido)pyridin-2-yl)-1,2,3,4-tetrahydroisoquinoline-5-carboxylic acid] | 6.30 to 7.00
10 | CC1CCCN(c2nc(C(F)(F)F)c(C(=O)Nc3ccc(N4CCN(c5ccccn5)CC4)nc3)o2)C1 (stereo not shown) [Compound 169, 2-(3-methylpiperidin-1-yl)-N-(6-(4-(pyridin-2-yl)piperazin-1-yl)pyridin-3-yl)-4-(trifluoromethyl)oxazole-5-carboxamide] | 7.00 to 7.96
11 | CC1CCCN(c2nc(C(F)(F)F)c(C(=O)Nc3ccc(N4CCN(c5ccccc5O)CC4)nc3)o2)C1 (stereo not shown) [Compound 171, N-(6-(4-(2-hydroxyphenyl)piperazin-1-yl)pyridin-3-yl)-2-(3-methylpiperidin-1-yl)-4-(trifluoromethyl)oxazole-5-carboxamide] | 7.00 to 7.96
12 | CC1CCCN(c2nc(C(F)(F)F)c(C(=O)Nc3ccc(N4CCc5c(cccc5Nc5ccccc5F)C4)nc3)o2)C1 (stereo not shown) [Compound 174, N-(6-(5-(2-fluorophenylamino)-3,4-dihydroisoquinolin-2(1H)-yl)pyridin-3-yl)-2-(3-methylpiperidin-1-yl)-4-(trifluoromethyl)oxazole-5-carboxamide] | 6.30 to 7.00
13 | O=C(Nc1ccc(N2CCN(C(=S)Nc3ccccc3F)CC2)nc1)c1oc(N2CCC(c3ccccc3)CC2)nc1C(F)(F)F [Compound 181, N-(6-(4-(2-fluorophenylcarbamothioyl)piperazin-1-yl)pyridin-3-yl)-2-(4-phenylpiperidin-1-yl)-4-(trifluoromethyl)oxazole-5-carboxamide] | 7.00 to 7.96
14 | N#C/N=C(/N1CCCC1)N1CCN(c2ccc(NC(=O)c3oc(N4CCC(c5ccccc5)CC4)nc3C(F)(F)F)cn2)CC1 [Compound 182, (Z)—N-(6-(4-((cyanoimino)(pyrrolidin-1-yl)methyl)piperazin-1-yl)pyridin-3-yl)-2-(4-phenylpiperidin-1-yl)-4-(trifluoromethyl)oxazole-5-carboxamide] | 6.30 to 7.00
15 | CC1CCCN(c2nc(C(F)(F)F)c(C(=O)Nc3ccc(N4CCCN(C(=O)[C@H]5CC[C@@H](C(=O)O)CC5)CC4)nc3)o2)C1 (stereo partly shown) [Compound 185, (1s,4s)-4-(4-(5-(2-(3-Methylpiperidin-1-yl)-4-(trifluoromethyl)oxazole-5-carboxamido)pyridin-2-yl)-1,4-diazepane-1-carbonyl)cyclohexanecarboxylic acid] | 6.30 to 7.00
16 | CC1CCCN(c2nc(C(F)(F)F)c(C(=O)Nc3ccc(N4CCCN(C(=O)c5cccc(C(=O)O)c5)CC4)nc3)o2)C1 (stereo not shown) [Compound 190, 3-(4-(5-(2-(3-methylpiperidin-1-yl)-4-(trifluoromethyl)oxazole-5-carboxamido)pyridin-2-yl)-1,4-diazepane-1-carbonyl)benzoic acid] | 6.30 to 7.00
17 | CC1CCCN(c2nc(C(F)(F)F)c(C(=O)Nc3ccc(N4CCCN(C(=O)C(O)C(F)(F)F)CC4)nc3)o2)C1 (stereo not shown) [Compound 191, 2-(3-methylpiperidin-1-yl)-N-(6-(4-(3,3,3-trifluoro-2-hydroxypropanoyl)-1,4-diazepan-1-yl)pyridin-3-yl)-4-(trifluoromethyl)oxazole-5-carboxamide] | 6.30 to 7.00
18 | CC1CCCN(c2nc(C(F)(F)F)c(C(=O)Nc3ccc(N4CCN(C(=O)C(O)C(F)(F)F)CC4)nc3)o2)C1 (stereo not shown) [Compound 194, 2-(3-methylpiperidin-1-yl)-N-(6-(4-(3,3,3-trifluoro-2-hydroxypropanoyl)piperazin-1-yl)pyridin-3-yl)-4-(trifluoromethyl)oxazole-5-carboxamide] | 7.00 to 7.96
19 | CC1CCCN(c2nc(C(F)(F)F)c(C(=O)Nc3ccc(N4CCN(C(=O)[C@H](O)C5CCCCC5)CC4)nc3)o2)C1 (stereo partly drawn) [Compound 196, N-(6-(4-((R)-2-cyclohexyl-2-hydroxyacetyl)piperazin-1-yl)pyridin-3-yl)-2-(3-methylpiperidin-1-yl)-4-(trifluoromethyl)oxazole-5-carboxamide] | 7.00 to 7.96

Reference: patent US8716312B2, “Inhibitors of diacylglycerol acyltransferase” (Merck Sharp & Dohme Corporation, priority 2008, dated 2014)
